The values that follow are results of earlier work, collected in patent publication US20250170152A1, “Cannabinoid Dosage Form” (priority 2022, published 2025).

Each structure is given as a SMILES string. Read-outs that look alike come from different tables or passages of the source.

Assay in series [1]: not given
The source holds these as a separate data set.

For series [2] the following is noted: oral THC formulations.
Where [3] appears, read: oral 800 mg CBD, eight subjects (Haney et al., 2016).
[4] abbreviates: 20 mg/kg/day CBD groups, EMA LGS/DS Assessment Report (Epidiolex).

For `C=C(C)C1CCC(C)=CC1c1c(O)cc(CCCCC)cc1O` (centres unmarked) [CBD, 2-[3-methyl-6-(1-methylethenyl)-2-cyclohexen-1-yl]-5-pentyl-1,3-benzenediol], the “mean Cmax” value is on record as 0.93 ng/mL (one hour after oral capsule containing 5.4 mg CBD (Nadulski et al., 2005a)); 2.47 ng/mL (oral 10 mg CBD (Guy and Robson, 2004b)); 77.9 ng/mL under setting [3]; 1.13 ng/mL (oral capsule 5.4 mg CBD, subset (n=12) with standard breakfast meal 1 h after the capsules). In addition, under setting [3], the “mean Tmax” value was 3.0 h. Also, the “time CBD remained detectable after administration” value (oral capsule 5.4 mg CBD (Nadulski et al., 2005b)) is 3 to 4 h. Besides, the “TEAE decrease of appetite, incidence” value in series [1] (setting [4]) was 22%. In addition, the “weight loss, incidence” value in series [1] (setting [4]) was 11%. Moreover, the “TEAE of diarrhoea, incidence” value in series [1] (5-20 mg/kg/day, LGS/DS population (Epidiolex)) is 12.9-21.2%; in series [1] (25-50 mg/kg/day, TSC population, EMA TSC Assessment Report (Epidiolex)), 30.7-56.2%.

For the compound `CCCCCc1cc(O)c2c(c1)OC(C)(C)[C@@H]1CCC(C)=C[C@@H]21` [THC, delta-9-tetrahydrocannabinol], the “delay to reach peak plasma concentration” value in series [2] is reported as ~120 min.
